# From patent publication US20130136691A1, “GASTRIN […] PEPTIDE COMPOUNDS” (priority 2008, published 2013)
# Assays:
# [1] = system: GRP receptor binding in BT-474 human breast cancer cells; assay: Effect of drug treatment on GRP receptor binding (177Lu-AMBA) and proliferation in BT-474 cells; details: BT-474; relative to untreated control; drug 0.1-1.0 μM (4-OH Tamoxifen 0.001-0.1 μM)
# Procedure: Cells for binding experiments were plated on Day 0 at 5.6×10^4 cells/cm^2 in 96-well white/clear bottom microtiter plates (Falcon Optilux-I), or 96 well black/clear collagen I cellware plates (Beckton Dickinson Biocoat).
# (§1) RPMI 1640 supplemented with 20 mM HEPES, 0.1% BSA (w/v), 0.5 mM PMSF (AEBSF), bacitracin (50 mg/500 ml), pH 7.4.
# (§2) Treatment: BT-474 cells were plated on Day 0 (see above); approximately 24-48 h after plating, treatment Days 1 and 2 (DT1, DT2), the medium was removed and replaced with fresh growth medium (control), or growth medium with the addition of lapatinib (0.1-1.0 μM). […] Incubations were stopped by the addition of 200 μL of ice-cold binding buffer. Plates were washed three more times with binding buffer, 140 μL of scintillation fluid was added to each well, the plates were sealed and analyzed on a Microp plate reader (Microbeta Trilux, Perkin-Elmer).
# (§3) Treatment: BT-474 cells were plated on Day 0 and treated on Days 1 and 2 (DT1, DT2).
# [2] = system: GRP receptor binding in PC-3 prostate cancer cells; assay: Effect of drug treatment on GRP receptor binding (177Lu-AMBA) and proliferation in PC-3 cells; details: PC-3
# Procedure: as §1, §2, §3
# [3] = system: ZR-75-1 human breast cancer cells; assay: Glucose uptake (2-NBDG) in ZR-75-1 cells after 4-hydroxytamoxifen; format: cell-based; details: for % Change in 2-NBDG: ZR-75-1 cells
# Procedure: For the glucose uptake study, a fluorescently labeled2-deoxyglucose derivative (2-NBDG) was used. […] The cell numbers were determined with CCK-F treatment as described above.
# (§4) The ZR-75-1 cells were seeded at 15K per well onto two 96-well scintiplates on the same day as 2 days study.
# [4] = system: GRP receptor binding in ZR-75-1 human breast cancer cells; assay: 4-hydroxytamoxifen effect on 177Lu-AMBA binding and proliferation in ZR-75-1 cells (2 to 12 days); format: cell-based; details: for % Change in Proliferation / % change in 177Lu-AMBA Uptake: ZR-75-1 cells
# Procedure: Method: ZR-75-1 breast cancer cell line (human ductal carcinoma with estrogen receptor) was obtained from the American Type Culture Collection (ATCC).
# ZR-75-1 cells were plated on Day 0 (40k/well 96-well PE Scintiplate). […] To determine the cell numbers and the proliferation, 100 uL of 10% CCK-F solution in DPBS (Molecular technologies) was added to the same plate, incubated for 30 min at 37° C. and the relative fluorescence (RFU) measured at 535 nm. Based on the cell numbers and the ^177Lu-binding, the Bmax (fmoles bound/million cells) was calculated.
# ZR-75-1 breast cancer cell lines were cultured as described above.
# as §4
# [5] = system: GRP receptor binding in T47D human breast cancer cells; assay: Effect of drug treatment on GRP receptor binding (177Lu-AMBA) and proliferation in T-47D cells; format: cell-based; details: T-47D, relative to untreated control
# Source text: T-47D breast cancer cells (human metastatic mammary gland ductal adenocarcinoma isolated from pleural effusion, ER+, PR+) were obtained from the American Type Culture Collection.
# [6] = system: BT-474 tumor-bearing nude mice; details: 1 hr; + Tamoxifen/+ ES, day 14, n = 3; control 2.18 ± 0.63
# Procedure: Female nude mice ([Ncr]-Foxn1) received hormone supplementation by administration of 17β-estradiol via 60 day time released pellets implanted s.c. (0.72 mg/60 Day release; 0.6 mg/kg; Innovative Research of America, Sarasota, Fla.). Four to seven days after beginning hormone treatment, the mice were xenografted with ten million BT-474 cells in Matrigel (1:1 with PBS) s.c. to the flank. The 1713 estradiol is required for tumor cell growth in this model.
# Control mice received vehicle-only time release pellets (in addition to hormone support).
# [7] = system: human PC-3 nude mouse model; format: in vivo; details: i.v.
# Procedure: 10-50 μCi of the HPLC purified compounds were administered to each mouse by i.v. tail vein injection, n=4 per group. At 1 h, 1 and 7 days post injection, the mice were terminated and the organs and tissues were harvested. Radioactivity was assayed in a gamma counter. The data was expressed as percentage of the total administered radioactivity (% ID) for the urine combined with the bladder, as well as for the blood pool; and percentage of the total administered radioactivity per gram (% ID/g) for all the other tested organs.
# [8] = system: GRP receptor binding in PC-3 prostate cancer cells; assay: Single plate assay: dasatinib effect on 177Lu-AMBA binding (Bmax) and proliferation (CCK-F) in PC-3 cells; format: cell-based; details: Homo sapiens, 100 nM Dasatinib, read-out: inhibition of growth (cell proliferation)
# Procedure: The cells were plated on Day 0 (7.5k/well 96-well PE Scintiplate). […] To determine the cell numbers and the proliferation, 100 uL of 10% CCK-F solution in DPBS (Molecular technologies) was added to the same plate, incubated for 30 min at 37° C. and the relative fluorescence (RFU) measured at 535 nm. Base on the cell numbers and the ^177Lu-binding, the Bmax (fmoles bound/million cells) was calculated, and the results compared with the control.
# human GRP-R = target: T1, human GRP-R (Homo sapiens, UniProt P30550); assay: Competition assay with 125I-BBN for GRP-R in PC3 cells (IC50); format: binding; details: competition with 125I-BBN
# T1 construct: host or cells: PC3 / PC-3 human prostate cancer cells (intact, plated)
# Procedure: To identify potential lead compounds, an in vitro assay that identifies compounds with high affinity for GRP-R was used.
# PC3 (human prostate cancer cell line) were obtained from the American Type Culture Collection and cultured in RPMI 1640 (ATCC) in tissue culture flasks (Corning). This growth medium was supplemented with 10% heat inactivated FBS (Hyclone, SH30070.03), 10 mM HEPES (GibcoBRL, 15630-080), and antibiotic/antimycotic (GibcoBRL, 15240-062) for a final concentration of penicillin-streptomycin (100 units/mL), and fungizone (0.25 μg/mL). […] Cells for experiments were plated at a concentration of 2.0×10^4/well either in 96-well white/clear bottom microtiter plates (Falcon Optilux-I) or 96 well black/clear collagen I cellware plates (Beckton Dickinson Biocoat). Plates were used for binding studies on day 1 or 2 post-plating.
# RPMI 1640 (ATCC) supplemented with 20 mM HEPES, 0.1% BSA (w/v), 0.5 mM PMSF (AEBSF), Bacitracin (50 mg/500 ml), pH 7.4. ^125I-BBN (carrier free, 2200 Ci/mmole) was obtained from Perkin-Elmer.
# A 96-well plate assay was used to determine the IC50 of various compounds of the invention to inhibit binding of ^125I-BBN to human GRP-R. The following general procedure was followed:
# All compounds tested were dissolved in binding buffer and appropriate dilutions were also done in binding buffer. PC3 cells (human prostate cancer cell line) for assay were plated at a concentration of 2.0×10^4/well either in 96-well white/clear bottomed microtiter plates (Falcon Optilux-I) or 96 well black/clear collagen I cellware plates (Beckton Dickinson Biocoat). Plates were used for binding studies on day 1 or 2 post-plating. The plates were checked for confluency (>90% confluent) prior to assay. […] These studies were conducted with an assay volume of 75 μl per well. Triplicate wells were used for each data point. After the addition of the appropriate solutions, plates were incubated for 1 h at 4° C. to prevent internalization of the ligand-receptor complex. Incubation was ended by the addition of 200 μl of ice-cold incubation buffer. Plates were washed 5 times and blotted dry. Radioactivity was detected using either the LKB CompuGamma counter or a microplate scintillation counter.
# All of the PC3 studies were performed as described in Example XLIII using ^125I-BBN. Selection of compounds for the assay was based on linker subtype.
# PC3 cell lines were obtained from ATCC(CRL-1435) and cultured in RPMI 1640 (ATCC) supplemented with 2 mM L-glutamine, 1.5 g/L Sodium bicarbonate, 10 mM HEPES and 10% FBS. […]
# All compounds tested were dissolved in binding buffer and appropriate dilutions were also done in binding buffer. […] Radioactivity was detected using either a LKB CompuGamma counter or a microplate scintillation counter.
# [9] = breast cancer (30% have HER2/neu, 30% treated respond); cited from earlier work
# [10] = drug 0.1-1.0 μM (4-OH Tamoxifen 0.001-0.1 μM)
# [11] = ZR-75-1, 1-100 nM, treatment on days 2 and 3
# T1 sequence (P30550 whole entry): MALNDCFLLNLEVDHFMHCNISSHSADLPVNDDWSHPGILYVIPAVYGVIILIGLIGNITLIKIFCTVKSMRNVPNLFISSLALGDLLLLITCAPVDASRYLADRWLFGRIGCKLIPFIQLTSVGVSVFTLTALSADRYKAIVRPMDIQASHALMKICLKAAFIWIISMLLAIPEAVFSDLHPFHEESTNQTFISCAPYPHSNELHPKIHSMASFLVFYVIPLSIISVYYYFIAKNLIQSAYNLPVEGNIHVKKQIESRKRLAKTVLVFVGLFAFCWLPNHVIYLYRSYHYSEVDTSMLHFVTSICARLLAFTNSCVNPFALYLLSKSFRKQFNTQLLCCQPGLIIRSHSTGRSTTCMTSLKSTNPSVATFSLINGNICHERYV
compound,measurement,setting,value
CC/C(=C(\c1ccc(O)cc1)c1ccc(OCCN(C)C)cc1)c1ccccc1 [4-OH Tamoxifen],decrease in 177Lu-AMBA binding (GRP receptor specific signal per cell),[1],up to 73%
same,"GRP receptor specific signal per cell (177Lu-AMBA binding) versus untreated controls, in words",[2]; [10],no change
same,"2-NBDG uptake, long-term treatment, in words","[3]; ZR-75-1, 100 nM, 2-12 days",smaller changes
same,decrease in glycolysis (2-NBDG uptake),[3]; [11],~20%
same,% Change in 2-NBDG,"[3]; 100 nM, 5 days of treatment",−47.5%
same,% Change in 2-NBDG,"[3]; 100 nM, 12 days of treatment",14.5%
same,"inhibition of proliferation, long-term treatment","[4]; ZR-75-1, 100 nM everyday, by 12 day",28%
same,"177Lu-AMBA uptake, long-term treatment, in words","[4]; ZR-75-1, 100 nM, 2-12 days",significant reduction
same,"cell proliferation, in words",[4]; [11],little change
same,% Change in Proliferation,"[4]; 100 nM, 5 days of treatment",−11.3 (±8.3) %
same,% change in 177Lu-AMBA Uptake,"[4]; 100 nM, 5 days of treatment",−77.4 (+1.6) %
same,% Change in Proliferation,"[4]; 100 nM, 12 days of treatment",−28.0 (±14.1) %
same,% change in 177Lu-AMBA Uptake,"[4]; 100 nM, 12 days of treatment",−72.3 (±14.6) %
same,% Change in Proliferation,[4]; 2 days of treatment,−7.2 (±3.8%
same,% change in 177Lu-AMBA Uptake,[4]; 2 days of treatment,−65.9 (±9.7) %
same,decrease in 177Lu-AMBA binding (GRP receptor specific signal per cell),[5]; [10],up to 35%
CC/C(=C(\c1ccccc1)c1ccc(OCCN(C)C)cc1)c1ccccc1 [Tamoxifen],177Lu-AMBA in Tumor (% ID/g),[6],0.70 ± 0.39 % ID/g
CC1(N(CC(=O)O)CC(=O)O)CN(CC(=O)O)[C@@H]2CCCC[C@H]2N(CC(=O)O)C1 [XX100],Blood 7 d % ID (*72 h timepoint),"[7]; 177Lu complex, 72 h timepoint",0.00 ± 0.00 % ID
same,Tumor 7 d % ID/g (*72 h timepoint),"[7]; 177Lu complex, 72 h timepoint",0.01 ± 0.00 % ID/g
same,distribution of radioactivity (in words),"[7]; Lu-177 complexes, 1 h, 1 and 7 days",rapidly cleared from the body with little residual localization in any organs or tissue
Cc1nc(Nc2ncc(C(=O)Nc3c(C)cccc3Cl)s2)cc(N2CCN(CCO)CC2)n1 [dasatinib],increase in 177Lu-AMBA binding (GRP receptor specific signal per cell),"[2]; relative to untreated control, drug 0.1-1.0 μM",up to 250%
same,inhibition at 0.1 µM,[8],≤ 33%
same,increase in 177Lu-AMBA binding (GRP receptor specific signal per cell),[5]; drug 0.1-1.0 μM (gefitinib 0.1-10 μM),up to 500%
DO3A-Gly-Abz-4-Gln-Trp-Ala-Val-Gly-His-Phe-Leu-NH2 [Compound L300],competition for GRP-R in PC3 cells (in words),human GRP-R,high activity at the GRP-R
Herceptin,overall response,[9],9%
"N-[(3β,5β,12α)-3-[[[4,7,10-Tris(carboxymethyl)-1,4,7,10-tetraazacyclododec-1-yl]acetyl]amino]-glycyl-4-aminobenzoyl-L-glutaminyl-L-tryptophyl-L-alanyl-L-valyl-glycyl-L-histidyl-L-phenylalanyl-L-methioninamide [Compound L228]",competition for GRP-R in PC3 cells (in words),human GRP-R,maintains GRP-R activity
"N-[(3β,5β,12α)-3-[[[4,7,10-Tris(carboxymethyl)-1,4,7,10-tetraazacyclododec-1-yl]acetyl]amino]-glycyl-4-aminobenzoyl-L-glutaminyl-L-tryptophyl-L-alanyl-glycyl-L-histidyl-L-phenylalanyl-L-leucinamide [Compound L224]",competition for GRP-R in PC3 cells (in words),human GRP-R,complete loss of binding
"N-[(3β,5β,12α)-3-[[[4,7,10-Tris(carboxymethyl)-1,4,7,10-tetraazacyclododec-1-yl]acetyl]amino]-glycyl-4-aminobenzoyl-L-leucyl-L-tryptophyl-L-alanyl-L-valinyl-glycyl-L-serinyl-L-phenylalanyl-L-methioninamide [Compound L225]",competition for GRP-R in PC3 cells (in words),human GRP-R,reduces competition at the GRP-R
